Laboratory results as given in patent publication US20190167589A1, “BIOMIMETIC PROTEOLIPID VESICLE COMPOSITIONS AND USES THEREOF” (The Methodist Hospital, priority 2016, published 2019).

Legend:
[1] = tested on: LPS-induced ear inflammation; experiment: Anti-inflammatory efficacy in LPS-induced local ear inflammation; format: in vivo, mice; details: treatment 30 min after LPS; DXM 5 mg/kg where loaded
Method: Explanted mouse ears were washed twice with PBS and embedded in a cryomold in O.C.T. (Tissue-Tek® O.C.T. Compound, Sakura® Finetek), and instantly frozen at −80° C. Ten μm-thick slides were obtained cutting ears block with a cryostat at −20° C. The slides were stored at −20° C. For hematoxylin and eosin (H/E) staining, slides were thawed, hydrated, washed and stained with hematoxylin and eosin (Sigma-Aldrich).
Once cryo-sections were obtained as described in the previous paragraph, immunofluorescence (IF) staining was performed as previously reported (Gelain et al., 2010). Briefly, slides were thawed and blocked with BSA 5% (Sigma-Aldrich) PBS 1× solution. After washing, they were incubated overnight at 4° C. with anti-neutrophil antibody (Alexa Fluor® 647 anti-mouse Ly-6G/Ly-6C (Gr-1) Biolegend. Excess anti-neutrophil antibody was washed out with PBS 1X. Cells nuclei were stained with DAPI. Slides were sealed with ProLong Gold antifade reagent (Life Technologies™). Images were captured with an Eclipse® Ti Inverted Fluorescent Microscope equipped with Hamamatsu Digital Camera C11440 ORCA-Flash 2.8.
Particles were administrated 30 min after LPS injection.
Explanted Mice ears were washed twice with PBS and embedded in a cryomold in O.C.T. (Tissue-Tek® O.C.T. Compound, Sakura® Finetek), and instantly frozen at −80° C. […]

human lung cancer cells = experiment: Synergy with Etoposide in killing cancer cells in vitro; format: cell-based
[2] = target: T1, Tyrosyl DNA Phosphodiesterase 2 (TDP2) (Homo sapiens, UniProt O95551); experiment: High-throughput screening for TDP2 inhibitory activity; format: biochemical
T1 sequence (O95551 1-362): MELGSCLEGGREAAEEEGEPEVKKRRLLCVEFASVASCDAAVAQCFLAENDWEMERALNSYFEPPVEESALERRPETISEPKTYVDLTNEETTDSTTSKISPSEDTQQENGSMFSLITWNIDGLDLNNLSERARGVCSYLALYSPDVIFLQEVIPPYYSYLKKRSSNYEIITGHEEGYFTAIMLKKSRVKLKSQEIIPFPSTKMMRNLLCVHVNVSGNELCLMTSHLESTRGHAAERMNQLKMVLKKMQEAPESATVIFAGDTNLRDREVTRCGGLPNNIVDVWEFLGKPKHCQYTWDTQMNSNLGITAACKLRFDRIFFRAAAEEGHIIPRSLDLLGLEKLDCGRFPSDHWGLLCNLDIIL

SMILES | tissue architecture (H&E staining) [1] | synergy with Etoposide in cancer cell killing (human lung cancer cells) | TDP2 inhibitory activity [2]
C[C@@H]1C[C@H]2[C@@H]3CCC4=CC(=O)C=C[C@]4(C)[C@@]3(F)[C@@H](O)C[C@]2(C)[C@@]1(O)C(=O)CO [free DXM, Dexamethasone] | alteration of tissue architecture |  | 
COc1cc2c(cc1OC)-c1c(OC)c(OC)cc3c1[C@H](C2)N(C)CC3 [Glaucine] |  | able to enhance Etoposide mediated cancer cell killing | TDP2 inhibitor
